The test system of one experiment is Kleb. E 70. The experiment can be described thus: MIC of ampicillin alone or with compound of the Example, Kleb. E 70. It is filed as cell-based.
In a further experiment the test system is Proteus C 889. Nature of the experiment: MIC of ampicillin alone or with compound of the Example, Proteus C 889. It is filed as cell-based.
The mark [1] stands for this setting: table 2 (no quantity or unit in head), Ampicillin alone.

On to `CC1(C)S[C@@H]2[C@H](NC(=O)[C@H](N)c3ccccc3)C(=O)N2[C@H]1C(=O)O` [Ampicillin], for which the MIC (usually the lowest concentration found to suppress growth) is more than 500 µg/mL with Kleb. E 70 (table 1, Ampicillin alone); 22 500 in the experiment on Kleb. E 70 (setting [1]); more than 500 µg/mL in the experiment on Proteus C 889 (table 1, Ampicillin alone); more than 500 µg/mL in the experiment on Proteus C 889 (setting [1]).

The record behind these values is US4242262A, “9-Nitromethyldeoxyclavulanic acid derivatives preparation and compositions” (Beecham Group Limited, priority 1977, dated 1980).
